Like-named read-outs stand apart in the source and are kept apart here.
Tests used:
[1] = tested on: T. gondii β-gal tachyzoites; settings: 72 h, tachyzoites grown in HFF; previously reported; cited from earlier work
(D-)A24cisPt8.0 cells [2] = assay: Growth inhibition, 72 h, cell density by Casy cell analyzer; format: cell-based, human; settings: 72 h exposure, mean ± SD
Excerpt: (§1) Human ovarian carcinoma cells A2780 and the cisPt resistant variant A2780cisR were purchased from the European Center of Cell Cultures (ECACC, Salisbury, UK). The HEK-293 cell line was kindly provided by Prof. Mühlemann, University of Bern. The A24 cells and its subline (D-)A24cisPt8.0 were described previously. The cancer cells A24 and (D-)A24cisPt8.0 [105] (human lung adenocarcinoma cells wild type A24 and cisPt resistant (D-)A24cisPt8.0 subline), A2780 and A2780cisR (human ovarian cisplatin sensitive and resistant cancer cells), together with HEK293 (human embryonic kidney) cells as model for normal cells, were included in the study for the evaluation of the ruthenium compounds’ selectivity and cross-resistance with cisplatin. The A24 sublines, A2780 and A2780cisR were cultured in RPMI 1640 medium without riboflavin, phenol red and antibiotics, buffered with 4.5 mM HEPES (BioConcept, Allschwil, Switzerland), supplemented with 10% (v/v) fetal bovine serum (FBS) (Thermo Scientific, Weltham, MA, USA) as the only source of flavins, and with 13.5 mM NaHCO3. In order to retain cisplatin resistance in the A2780cisR cell line, 1 µM cisplatin was added to the medium every 2–3 passages. HEK293 cells were cultured in DMEM/F12 medium, supplemented with 10% (v/v) FBS. At subcultivation, cell monolayers were rinsed with PBS and exposed for 3 min to StemPro Accutase Cell Dissociation Reagent (Thermo Scientific, Weltham, MA, USA) at 36.5 °C. Detached cells were resuspended in culture medium. Cell densities were determined using Moxi flow cytometer according to manufacturer instructions (Orflo Technologies, Ketchum, ID, USA). Experiments and subcultivations were performed using light with wavelengths above 520 nm to prevent photochemical artifacts. Cytostatic drug response was quantified as previously reported. Briefly, HEK293, A24, A2780, A2780cisR, and (D-)A24cisPt8.0 single cell suspensions were freshly prepared from confluent cell layers using Accutase and diluted in culture medium to a cell density of 2 × 10^4 or 8 × 10^4 cells/mL (D-)A24cisPt8.0. 150 µl of this suspension was combined with 150 µl of twice the cisPt or Ru-compound concentration in a 96-well microtiter plate (TPP, Trasadingen, Switzerland). Test plates were incubated under standard conditions for 72 h. Cell densities were determined in a Casy I cell analyzer using Casystat software (OLS OMNI Life Science, Bremen, Germany). Drug concentrations leading to 50% growth inhibition compared to controls were calculated using GraphPad Software (La Jolla, CA, USA). Each experiment was done in triplicates.

A24 cells = assay: as above; format: cell-based, human; settings: 72 h exposure, mean ± SD
Excerpt: as §1

A2780 cells [3] = assay: as above; format: cell-based, human; settings: 72 h exposure, mean ± SD
Excerpt: as §1

A2780cisR cells [4] = assay: as above; format: cell-based, human; settings: 72 h exposure, mean ± SD
Excerpt: as §1

HEK293 cells = assay: as above; format: cell-based, human; settings: 72 h exposure, mean ± SD
Excerpt: as §1

(D-)A24cisPt8.0 cells [5] = tested on: (D-)A24cisPt8.0 cells; parameters: method as in PMID 32485798; settings: cited from earlier work
[6] = tested on: T. gondii β-gal tachyzoites; assay: T. gondii β-gal tachyzoite proliferation in HFF (β-galactosidase / CPRG assay); format: cell-based, Toxoplasma gondii; settings: 72 h, % of DMSO control
Excerpt: (§2) If not otherwise stated, all tissue culture media were purchased from Gibco-BRL, and biochemical agents purchased from Sigma-Aldrich. HFF (SCRC-1041.1) were purchased from ATCC, and were maintained in DMEM medium containing 10% fetal calf serum (FCS, Gibco-BRL, Waltham, MA, USA), and antibiotics as described. Transgenic T. gondii β-gal (expressing the β-galactosidase gene from Escherichia coli) were kindly provided by Prof. David Sibley (Washington University, St. Louis, MO, USA) and were maintained in HFF as host cells, and were isolated as described before.
Compounds were prepared as 1 mM stock solutions in DMSO (dimethyl sulfoxide, Sigma, St. Louis, MO, USA). For activity assays, HFF monolayers were cultured in 96 well plates by seeding 5 × 10^3 HFF per well and allowing them to grow to confluence in phenol-red free culture medium at 37 °C/5% CO2. For infection, T. gondii β-gal tachyzoites were separated from their host cells as described, parasites were isolated and HFF monolayers were infected with freshly isolated tachyzoites (1 × 10^3 per well), with compounds solutions added concomitantly during infection.
For the primary screening, T. gondii β-gal infected HFF were exposed to 0.1 and 1µM of each compound for a period of 72 h, or the corresponding concentration of DMSO (0.01% and 0.1%, respectively) as control. For the determination of IC50 values against T. gondii β-gal, compounds were added at 8 concentrations: 0.007, 0.01, 0.03, 0.06, 0.12, 0.25, 0.5, and 1 µM. After 72 h of culture at 37 °C/5% CO2, the medium was aspirated, and cells were permeabilized by adding 90 µL PBS (phosphate buffered saline) containing 0.05% Triton X-100. After addition of 10 µL 5 mM chlorophenol red-β-D-galactopyranoside (CPRG; Roche Diagnostics, Rotkreuz, Switzerland) dissolved in PBS, the absorption shift was measured at 570 nm wavelength at various time points using an EnSpire® multimode plate reader (PerkinElmer, Inc, Waltham, MA, USA). For the primary screening at 0.1 and 1 μM, the activity, measured as the release of chlorophenol red over time, was calculated as percentage from the respective DMSO control, which represented 100% of T. gondii β-gal growth. For the IC50 assays, the activity measured as the release of chlorophenol red over time was proportional to the number of live parasites down to 50 per well as determined in pilot assays. IC50 values were calculated after the logit-log-transformation of relative growth and subsequent regression analysis. All calculations were performed using the corresponding software tool contained in the Excel software package (Microsoft, Redmond, WA, USA).

[7] = tested on: HFF (human foreskin fibroblasts); assay: Cytotoxicity in uninfected confluent HFF host cells (AlamarBlue assay); format: cell-based; settings: 72 h, non-infected HFF
Excerpt: as §2
Cytotoxicity assays using uninfected confluent HFF host cells were performed as previously described by AlamarBlue assay. In brief, confluent HFF monolayers in 96 well-plates were exposed to 0.1, 1 and 2.5 µM of each compound. Non-treated HFF as well as DMSO controls (0.01%, 0.1% and 0.25%) were included. After 72 h of incubation at 37 °C/5% CO2, the medium was removed, and plates were washed once with PBS. Resazurin stock solution was diluted 1:200 in PBS and 200 µL were added to each well. Plates were read at excitation wavelength 530 nm and emission wavelength […] at the EnSpire® multimode plate reader (PerkinElmer, Inc). Fluorescence was measured at different timepoints. Relative fluorescence units were calculated from timepoints with linear increase.

Neospora caninum [8] = tested on: Neospora caninum; parameters: method as in PMID 28652238, PMID 30620038, PMID 31469986; settings: read-out: N. caninum proliferation IC50; cited from earlier work
Neospora caninum [9] = tested on: Neospora caninum; parameters: method as in PMID 28652238, PMID 30620038, PMID 31469986; settings: applied orally, neosporosis mouse model; cited from earlier work
T. gondii = tested on: T. gondii; parameters: method as in PMID 28652238; settings: cited from earlier work; for parasiticidal action on T. gondii: applied at 250 nM; for IC50: read-out: T. gondii proliferation IC50
A2780 cells [10] = settings: read-out: IC50 against A2780 cells; cited from earlier work
A2780cisR cells [11] = tested on: A2780cisR cells; parameters: method as in PMID 27561129, doi:10.1016/j.jorganchem.2014.10.050, PMID 27187018; settings: read-out: IC50 against A2780cisR cells; cited from earlier work
HFF host cells = settings: cited from earlier work

Molecule	IC50 ((D-)A24cisPt8.0 cells [2]) [µM]	IC50 (A24 cells) [µM]	IC50 (A2780 cells [3]) [µM]	IC50 (A2780cisR cells [4]) [µM]	IC50 (HEK293 cells) [µM]	IC50 (Neospora caninum [8]) [nM]	parasite load in the central nervous system (Neospora caninum [9])	parasiticidal action on T. gondii (T. gondii)	also measured
CCc1nc(N)nc(N)c1-c1ccc(Cl)cc1 [Pyrimethamine, pyrimethamine]									IC50 [1]: 326 nM
N.N.[Cl][Pt][Cl] [cisPt, cis-diamminedichloroplatinum(II)]	8.89 ± 0.446	0.333 ± 0.075	0.21 ± 0.119	4.08 ± 0.21	0.515 ± 0.064				resistance to cisplatin of (D-)A24cisPt8.0 subline compared to the A24 cells ((D-)A24cisPt8.0 cells [5]): approximately 30 fold
[(η6-p-MeC6H4Pri)2Ru2(μ2-SCH2C6H4-p-But)2(μ2-SC6H4-p-NH)-(CO)-m-C6H4-(CO)-(p-NH-C6H4-μ2S)Ru2(μ2-SCH2C6H4-p-But)2(η6-p-MeC6H4Pri)2]Cl2 [Compound 17]	0.09 ± 0.003	0.24 ± 0.016	0.416 ± 0.106	0.644 ± 0.08	0.447 ± 0.043				T. gondii β-gal growth (%) 0.1 µM [6]: 117 ± 7%; T. gondii β-gal growth (%) 1 µM [6]: 109 ± 6%; HFF viability (%) 0.1 µM [7]: 102 ± 2%; HFF viability (%) 1 µM [7]: 106 ± 7%
[(η6-p-MeC6H4Pri)2Ru2(μ2-SCH2C6H4-p-But)2(μ2-SC6H4-p-O)-(CO)(CH2)3(CO)-(p-O-C6H4-μ2S)Ru2(μ2-SCH2C6H4-p-But)2(η6-p-MeC6H4Pri)2]Cl2 [Compound 7]	0.053 ± 0.007	0.033 ± 0.002	0.097 ± 0.041	0.072 ± 0.008	0.085 ± 0.026				T. gondii β-gal growth (%) 0.1 µM [6]: 68 ± 2%; T. gondii β-gal growth (%) 1 µM [6]: 0 ± 6%; HFF viability (%) 0.1 µM [7]: 76 ± 2%; HFF viability (%) 1 µM [7]: 25 ± 4%
[(η^6-p-MeC6H4Pr^i)2Ru2(µ2-S-p-C6H4R)3]^+ with R = p-Bu^t						5	did not reduce parasite load in the central nervous system	did not act in a parasiticidal manner	IC50 (T. gondii): 62 nM; IC50 (A2780 cells [10]): 30 nM; IC50 (A2780cisR cells [11]): 30 nM; dosage that did not affect HFF host cells (HFF host cells): ≥ 200 µM
[(η^6-p-MeC6H4Pr^i)2Ru2(µ2-S-p-C6H4R)3]^+ with R = p-Me [A]						15	did not reduce parasite load in the central nervous system	did not act in a parasiticidal manner	IC50 (T. gondii): 34 nM; dosage that did not affect HFF host cells (HFF host cells): ≥ 200 µM
[(η^6-p-MeC6H4Pr^i)2Ru2(µ2-SR^1)(µ2-SR^2)2]^+ with R^1 = CH2-C6H4-p-Bu^t, R^2 = C6H4-p-OH, X = Cl^- [D]						1	did not reduce parasite load in the central nervous system	did not act in a parasiticidal manner	
